Values of other authors, collected in patent US11154521B2 (Acer Therapeutics Inc., priority 2016, dated 2021).

How the values were obtained:
[1] = healthy adults
[2] = system: cultured human muscle fibers; conditions: Nogalska et al. 2014
torsinA = conditions: Cho et al. PLoS One 2014

Compound	mean terminal half-life [1] [min]	Aβ42 and its oligomers [2]	lysosomal activity [2]	muscle-fiber vacuolization [2]	γ-secretase activity [2]	proinflammatory molecules and reactive oxygen species (ROS) (activated glial cells)	ER stress and inhibited cAMP response to forskolin induced by torsinA mutation (torsinA)
sodium phenylbutyrate	48	decrease	improve	prevent	decrease	suppress	–
O=C(O)CCCc1ccccc1 [4-phenylbutyrate]	–	–	–	–	–	–	corrected
